According to patent US10196363B2, “Dihydropyrimidin-2-one compounds and medical use thereof” (JAPAN TOBACCO INC., priority 2014, dated 2019):
Like-named read-outs stand apart in the source and are kept apart here.

Legend:
human RORγ = biological target: T1, human RORγ (Homo sapiens, UniProt P51449); assay: In vitro assay of inhibitory effect against RORγ transcriptional activity (GAL4-hRORγ LBD luciferase reporter gene assay in CHO cells); assay type: cell-based; conditions: for hRORγ luciferase activity, %-of-control: vehicle-control 0.2% DMSO alone = 100%
T1 construct: human RORγ, from Ser253 to Lys518; expressed in transfected cells; host or cells: CHO cells (Chinese hamster ovary), transient co-transfection with pG5-Luc
T1 sequence (P51449 253-518): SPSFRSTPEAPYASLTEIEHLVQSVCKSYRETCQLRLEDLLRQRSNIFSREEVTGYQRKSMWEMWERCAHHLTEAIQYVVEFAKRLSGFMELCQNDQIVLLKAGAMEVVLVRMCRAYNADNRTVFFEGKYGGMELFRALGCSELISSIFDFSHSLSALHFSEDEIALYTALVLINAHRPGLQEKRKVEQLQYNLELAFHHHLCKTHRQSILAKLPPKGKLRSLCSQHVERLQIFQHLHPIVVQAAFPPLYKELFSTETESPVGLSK
In short: (§1)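 CHO cells were transiently co-transfected with a GAL4-DBD fusion of the human (Ser253–Lys518) or mouse (Ile251–Lys516) RORγ LBD plus a GAL4-luciferase reporter. Cells were treated with 8 compound concentrations (0.2% DMSO) for 2 days at 37 °C. Luciferase was expressed as %-of-vehicle control, EC50 was curve-fitted, and cytotoxic concentrations were excluded.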

mouse RORγ = biological target: T2, mouse RORγ (Mus musculus, UniProt P51450); assay: In vitro assay of inhibitory effect against RORγ transcriptional activity (GAL4-mRORγ LBD luciferase reporter gene assay in CHO cells); assay type: cell-based; conditions: for mRORγ luciferase activity, %-of-control: value in parentheses beside the > EC50 bound, vehicle-control 0.2% DMSO alone = 100%
T2 construct: mouse RORγ, from Ile251 to Lys516; expressed in transfected cells; host or cells: CHO cells (Chinese hamster ovary), transient co-transfection with pG5-Luc
T2 sequence (P51450 251-516): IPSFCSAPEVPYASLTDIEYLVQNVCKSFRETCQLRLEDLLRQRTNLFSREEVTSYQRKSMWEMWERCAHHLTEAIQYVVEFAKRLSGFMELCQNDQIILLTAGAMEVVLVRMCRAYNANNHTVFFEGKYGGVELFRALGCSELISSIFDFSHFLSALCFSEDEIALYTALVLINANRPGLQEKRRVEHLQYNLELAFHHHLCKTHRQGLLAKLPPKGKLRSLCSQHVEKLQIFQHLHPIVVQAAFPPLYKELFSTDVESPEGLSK
In short: as §1

[1] = GAL4-hRORγ LBD luciferase reporter, CHO cells, read-out: LUC EC50 hRORγ
[2] = GAL4-mRORγ LBD luciferase reporter, CHO cells, read-out: LUC EC50 mRORγ
[3] = GAL4-hRORγ LBD / pG5-Luc in CHO cells, 2 days incubation
[4] = GAL4-mRORγ LBD / pG5-Luc in CHO cells, 2 days incubation
[5] = value in parentheses beside the > EC50 bound

Row | Compound | EC50 (human RORγ; [1]) [nM] | EC50 (mouse RORγ; [2]) [nM] | EC50 (human RORγ; [3]) [nM] | EC50 (mouse RORγ; [4]) [nM] | further results
1 | CC(C)C1=CN(CCC(=O)O)C(=O)N[C@@]1(C)c1ccc(C2=CCC(F)(F)CC2)c(Cl)c1 [Example 327] | 58 | 40 |  |  | 
2 | CC(C)C1=CN(CCC(=O)O)C(=O)N[C@]1(C)c1ccc(C2=CCCC2)c(Cl)c1 [Example 148] |  |  | > 8000 | > 8000 | hRORγ luciferase activity, %-of-control (human RORγ; [5]): (57%); mRORγ luciferase activity, %-of-control (mouse RORγ): (69%)
3 | CCOC(=O)c1ccc(C2(C)NC(=O)N(CCC(=O)O)C=C2C(C)C)cc1Cl (racemic) [Example 114] |  |  | 14900 | 11000 | 
4 | COCCOc1ccc([C@]2(C)NC(=O)N(CCC(=O)O)C=C2C(C)C)cc1Cl [Example 127] |  |  | 2940 | 1950 | 
5 | CC(C)C1=CN(CCC(=O)O)C(=O)N[C@@]1(C)c1ccc(C=C2CCOCC2)c(Cl)c1 [Example 289] | 1120 | 773 |  |  | 
6 | CC(C)C1=CN(CCC(=O)O)C(=O)N[C@@]1(C)c1ccc(OCCC(F)(F)F)c(Cl)c1 [Example 140] |  |  | 209 | 139 | 
7 | CC(C)C1=CN(CCC(=O)O)C(=O)N[C@@]1(C)c1cc(F)c(OCC(C)(C)C)c(Cl)c1 [Example 164] |  |  | 18 | 11 | 
8 | COCCC1=CN(CCC(=O)O)C(=O)N[C@@]1(C)c1ccc(C2=CCC(C)(C)CC2)c(Cl)c1 [Example 331] | 14 | 8 |  |  | 
9 | CCOC(=O)C1CNCC1N1C=C(C(C)C)[C@](C)(c2ccc(CCC(C)(C)C)c(Cl)c2)NC1=O (single isomer, unassigned) [Example 245] | 261 | 301 |  |  | 
10 | CC(C)C1=CN(CCC(=O)O)C(=O)N[C@@]1(C)c1ccc(SC2CCCC2)c(Cl)c1 [Example 224] | 343 | 123 |  |  | 
11 | COc1cc(N2C=C(C(C)C)[C@](C)(c3ccc(CCC(C)(C)C)c(C(F)(F)F)c3)NC2=O)ccc1C(=O)O [Example 345] | 42 | 23 |  |  | 
12 | CC(C)C1=CN(CCC(=O)O)C(=O)N[C@@]1(C)c1ccc(CCC(C)(C)C)cc1 [Example 253] | 75 | 34 |  |  | 
13 | CC(C)C1=CN(C23CCC(C(=O)O)(CC2)C3)C(=O)N[C@@]1(C)c1ccc(CCC(C)(C)C)c(Cl)c1 [Example 269] | 19 | 23 |  |  | 
14 | CC(C)C1=CN(CCC(C)C(=O)O)C(=O)NC1(C)c1ccc(OCC(C)(C)C)c(Cl)c1 (single isomer, unassigned) [Example 20] |  |  | 2930 | 2520 | 
15 | CC(C)(C)CCc1ccc([C@]2(C)NC(=O)N(c3ccc(C(=O)O)cc3)C=C2CCCOC(C)(C)C)cc1Cl [Example 313] | 260 | 366 |  |  | 
16 | CC(C)CCOc1c(F)cc([C@]2(C)NC(=O)N(CCC(=O)O)C=C2C(C)C)cc1Cl [Example 195] | 18 | 12 |  |  | 
17 | COCCN1C=C(c2cnn(C(C)(C)C(=O)O)c2)[C@](C)(c2ccc(CCC(C)(C)C)c(Cl)c2)NC1=O [Example 296] | 3720 | 4530 |  |  | 
18 | COC1CC(C2=CN(c3ccc(C(=O)O)cc3)C(=O)N[C@@]2(C)c2ccc(CCC(C)(C)C)c(Cl)c2)C1 (single isomer, unassigned) [Example 276] | 28 | 47 |  |  | 
19 | CC(C)C1=CN(c2ccc(C(=O)O)cc2)C(=O)N[C@@]1(C)c1ccc(COC(C)(C)C)c(Cl)c1 [Example 203] | 30 | 21 |  |  | 

Continued, in another order:

Row | EC50 (human RORγ; [1]) [nM] | EC50 (mouse RORγ; [2]) [nM] | EC50 (human RORγ; [3]) [nM] | EC50 (mouse RORγ; [4]) [nM] | Compound | further results
20 |  |  | 65 | 49 | CC(C)C1=CN(CCC(=O)O)C(=O)NC1(C)c1ccc(C2CCCC(C)(C)C2)c(Cl)c1 (single isomer, unassigned) [Example 167] | 
21 | 131 | 56 |  |  | COc1cc([C@]2(C)NC(=O)N(CCC(=O)O)C=C2C(C)C)ccc1CCC(C)(C)C [Example 213] | 
22 | 28 | 28 |  |  | CC(C)C1=CN(C2CCCC(C(=O)O)C2)C(=O)N[C@@]1(C)c1ccc(CCC(C)(C)C)c(Cl)c1 (single isomer, unassigned) [Example 254] | 
23 | 25 | 75 |  |  | COCCN1C=C(c2cccc(C(=O)O)c2)[C@](C)(c2ccc(CCC(C)(C)C)c(Cl)c2)NC1=O [Example 273] | 
24 | 15 | 14 |  |  | CC(C)C1=CN(CCC(=O)O)C(=O)N[C@@]1(C)c1ccc(CC2CCCCC2)c(Cl)c1 [Example 268] | 
25 | 36 | 34 |  |  | CC(C)(C)CCc1ccc([C@]2(C)NC(=O)N(C3CC(C)(C)C3)C=C2[C@H]2C[C@H](C(=O)O)C2)cc1Cl (single isomer, unassigned) [Example 287] | 
26 |  |  | 36 | 21 | CCCCCc1ccc(C2(C)NC(=O)N(CCCC(=O)O)C=C2C(C)C)cc1Cl (racemic) [Example 53] | 
27 |  |  | 7 | 13 | CC(C)C1=CN(CCc2ccc(C(=O)O)cc2)C(=O)N[C@@]1(C)c1ccc(CCC(C)(C)C)c(Cl)c1 [Example 50] | 
28 |  |  | 405 | 481 | CC(C)C1=CN([C@H]2C[C@](C)(C(=O)O)C2)C(=O)N[C@]1(C)c1ccc(CCC(C)(C)C)c(Cl)c1 [Example 111] | 
29 | 13 | 14 |  |  | CC(C)(C)CCc1ccc([C@]2(C)NC(=O)N(CCC(=O)O)C=C2C2CC(F)(F)C2)cc1Cl [Example 319] | 
30 |  |  | 17 | 29 | CC(C)(C)CCc1ccc(C2(C)NC(=O)N(CCCC(=O)O)C=C2C(C)(C)C)cc1Cl (racemic) [Example 22] | 
31 |  |  | 30 | 23 | CC(C)C1=CN(CCC(=O)O)C(=O)N[C@@]1(C)c1ccc(CC[Si](C)(C)C)c(Cl)c1 [Example 158] | 
32 | 52 | 26 |  |  | CC(C)C1=CN(CCC(=O)O)C(=O)N[C@@]1(C)c1ccc(CCC(C)(C)C)c(C(F)(F)F)c1 [Example 270] | 
33 | > 3200 | 71 |  |  | CC(C)C1=CN(CCC(=O)O)C(=O)N[C@@]1(C)c1ccc([C@H]2C[C@@H](CC(C)(C)C)C2)c(Cl)c1 [Example 309] | hRORγ luciferase activity, %-of-control (human RORγ; value in parentheses beside the EC50 bound): (63%)
34 |  |  | 2040 | 3970 | CC(C)(C)CCc1ccc([C@@]2(C)NC(=O)N(CCCC(=O)O)C=C2C2CC(F)(F)C2)cc1Cl [Example 145] | 
35 | 1220 | 543 |  |  | CC(C)C1=CN(C2CCCC2C(=O)O)C(=O)N[C@@]1(C)c1ccc(CCC(C)(C)C)c(Cl)c1 (single isomer, unassigned) [Example 243] | 
36 |  |  | 1250 | 1650 | CC(C)(C)CCc1ccc([C@@]2(C)NC(=O)N(CCCC(=O)O)C=C2C2CCC2)cc1Cl [Example 58] | 
37 | 60 | 48 |  |  | CC1(C)CC=C(c2ccc([C@]3(C)NC(=O)N(CCC(=O)O)C=C3C3CC3)cc2Cl)CC1 [Example 321] | 
38 | 11 | 8 |  |  | COCCC1=CN(CCC(=O)O)C(=O)N[C@@]1(C)c1ccc(CCC(C)(C)C)c(Cl)c1 [Example 211] | 
39 |  |  | 10 | 19 | CC(C)(C)CCc1ccc(C2(C)NC(=O)NC=C2C(C)(C)CCC(=O)O)cc1Cl (single isomer, unassigned) [Example 130, 4-{4-[3-chloro-4-(3,3-dimethyl-butyl)-phenyl]-4-methyl-2-oxo-1,2,3,4-tetrahydro-pyrimidin-5-yl}-4-methyl-pentanoic Acid] | 
40 |  |  | > 8000 | > 8000 | CC(C)C1=CN(CCCC(=O)O)C(=O)N[C@]1(C)c1ccc(CCC2CCC2)c(Cl)c1 [Example 109] | hRORγ luciferase activity, %-of-control (human RORγ; [5]): (60%); mRORγ luciferase activity, %-of-control (mouse RORγ): (67%)
